Where two headings read alike, the source gives them in different places.
Key:
Format in all cases: cell-based
[1] = test system: arachidonic acid-stimulated platelet aggregation; assay: Arachidonic acid-stimulated platelet aggregation in concentrated human platelet-rich plasma (aggregometer); conditions: for arachidonic acid-stimulated platelet aggregation in treated groups: groups treated with the compound
Description: (§1) To measure the activity against collagen-stimulated platelet aggregation of the novel compound identified from the Ginkgo biloba bark, concentrated human platelet-rich-plasma (PRP) was first prepared. The PRP used in the present invention was obtained by collecting blood from volunteers in Hallym University Medical Center, centrifuging the blood at 1,000 rpm and room temperature for 10 minutes to collect pure supernatant PRP and centrifuging the supernatant PRP at 3,000 rpm and room temperature for 10 minutes. The obtained PRP was separated into platelet-poor plasma (PPP) and platelets (PLTs). Then, concentrated PRP was prepared in the following manner. That is, platelets (PLTs) were suspended in a suitable amount of the supernatant PPP and measured for absorbance at 660 nm using a UV/visible spectrophotometer. Based on the measured absorbance, the suspension was further diluted with an excess of PPP to prepare concentrated PRP containing 5×10^8 platelets/ml. Herein, an OD value of 1.1 at 660 nm means 1×10^8 PLTs. A washing buffer used in the present invention was a pH 6.5 buffer containing 129 mM NaCl, 10.9 mM sodium citrate dihydrate, 8.9 mM NaHCO3, 1 mg/ml glucose, 10 mM tris-hydroxymethylaminomethane, 2.8 mM KCl, 0.8 mM KH2PO4 and 2 mM EDTA. Also, a suspension buffer used in this test example was a pH 6.9 buffer, which was the same as said washing buffer, except that it contained no EDTA. The platelet aggregation inhibitory effect of the novel compound was examined using the prepared concentrated PRP in the following manner. First, the concentrated PRP was used to make 500 μl of an in vitro reaction system. For use as a control group, the concentrated PRP was stabilized at 37° C. for 3 minutes and treated with collagen (Chrono-LogCo.) as a stimulating agent at a concentration of 10 μg/ml, and the aggregation of platelets in the reaction system was induced for 5 minutes. Meanwhile, the same reaction system as described above was treated with the novel compound, was allowed to react with the novel compound for 3 minutes, was stimulated with collagen for 6 minutes according to the same method as described above so as to induce platelet aggregation, and then was measured for aggregated platelets. The aggregation of platelets was measured with a change in light transmission using an aggregometer (Chrono-Log Co.) at 37° C. The measurement results are shown in Table 1 below and FIGS. 6, 7 and 8. Table 1 summarizes the antiplatelet aggregation activities of aspirin, the novel compound and ginkgolide A and B against platelet aggregation factors, including ADP, collagen and arachidonic acid. […]

[2] = test system: collagen-stimulated platelet aggregation; assay: Collagen-stimulated platelet aggregation in concentrated human platelet-rich plasma (aggregometer); conditions: human concentrated PRP; for IC50: aggregation factor collagen 10 μg/ml, 37° C., read-out: IC50 antiplatelet aggregation activity, Collagen
Description: To measure the activity against collagen-stimulated platelet aggregation of the novel compound identified from the Ginkgo biloba bark, concentrated human platelet-rich-plasma (PRP) was first prepared. The PRP used in the present invention was obtained by collecting blood from volunteers in Hallym University Medical Center, centrifuging the blood at 1,000 rpm and room temperature for 10 minutes to collect pure supernatant PRP and centrifuging the supernatant PRP at 3,000 rpm and room temperature for 10 minutes. The obtained PRP was separated into platelet-poor plasma (PPP) and platelets (PLTs). Then, concentrated PRP was prepared in the following manner. That is, platelets (PLTs) were suspended in a suitable amount of the supernatant PPP and measured for absorbance at 660 nm using a UV/visible spectrophotometer. Based on the measured absorbance, the suspension was further diluted with an excess of PPP to prepare concentrated PRP containing 5×10^8 platelets/ml. Herein, an OD value of 1.1 at 660 nm means 1×10^8 PLTs. A washing buffer used in the present invention was a pH 6.5 buffer containing 129 mM NaCl, 10.9 mM sodium citrate dihydrate, 8.9 mM NaHCO3, 1 mg/ml glucose, 10 mM tris-hydroxymethylaminomethane, 2.8 mM KCl, 0.8 mM KH2PO4 and 2 mM EDTA. Also, a suspension buffer used in this test example was a pH 6.9 buffer, which was the same as said washing buffer, except that it contained no EDTA. The platelet aggregation inhibitory effect of the novel compound was examined using the prepared concentrated PRP in the following manner. First, the concentrated PRP was used to make 500 μl of an in vitro reaction system. For use as a control group, the concentrated PRP was stabilized at 37° C. for 3 minutes and treated with collagen (Chrono-LogCo.) as a stimulating agent at a concentration of 10 μg/ml, and the aggregation of platelets in the reaction system was induced for 5 minutes. Meanwhile, the same reaction system as described above was treated with the novel compound, was allowed to react with the novel compound for 3 minutes, was stimulated with collagen for 6 minutes according to the same method as described above so as to induce platelet aggregation, and then was measured for aggregated platelets. The aggregation of platelets was measured with a change in light transmission using an aggregometer (Chrono-Log Co.) at 37° C. The measurement results are shown in Table 1 below and FIGS. 6, 7 and 8. Table 1 summarizes the antiplatelet aggregation activities of aspirin, the novel compound and ginkgolide A and B against platelet aggregation factors, including ADP, collagen and arachidonic acid. […] In the case of the group treated with the novel compound, when arachidonic acid was used as the aggregation factor, the aggregation of platelets occurred only upon stimulation with 1,000 μM (i.e., 1 mM) or higher concentration of arachidonic acid.

[3] = test system: ADP-induced platelet aggregation; assay: ADP-stimulated platelet aggregation in concentrated human platelet-rich plasma (aggregometer); conditions: aggregation factor ADP, human concentrated PRP, —: no effect
Description: as §1

[4] = arachidonic acid as aggregation factor

Row | IC50 ([1]; Platelet, aggregation factor arachidonic acid, human concentrated PRP, —: no effect, read-out: IC50 antiplatelet aggregation activity, AA) [µM] | IC50 ([2]; Platelet) [µM] | IC50 antiplatelet aggregation activity, ADP [3] | IC50 [2] [µM] | IC50 ([3]; Platelet, read-out: IC50 antiplatelet aggregation activity, ADP) [µM] | Compound | concentration of arachidonic acid at which aggregation of platelets occurred in the treated group ([1]; arachidonic acid as aggregation factor, group treated with the compound) | inhibitory activity on collagen-stimulated platelet aggregation (FIGS. 6-8) [2] | arachidonic acid-stimulated platelet aggregation in treated groups [1, 4]
1 | > 1000 | 680 | did not show an effect | – | – | COc1cc(-c2oc3cc(OC)c(CCCO)cc3c2C=O)ccc1O [Novel compound, 5-(3-hydroxyprophyl)-6-methoxy-2-(3′-methoxy-4′-hydroxyphenyl)-3-benzo[b]furancarbaldehyde] | ≥ 1,000 μM | inhibited collagen-stimulated platelet aggregation in a concentration-dependent manner | –
2 | – | – | did not show an effect | 482 | – | C[C@@H]1C(=O)O[C@H]2C[C@@]34[C@H]5C[C@@H](C(C)(C)C)[C@]36[C@@H](OC(=O)[C@@H]6O)O[C@@]4(C(=O)O5)[C@]21O [Gingkolide A] | – | inhibited collagen-stimulated platelet aggregation in a concentration-dependent manner | did not occur
3 | – | 203 | – | – | 316 | CC(=O)Oc1ccccc1C(=O)O [Aspirin] | – | inhibited platelet aggregation in a concentration-dependent manner | –
4 | – | – | did not show an effect | 480 | – | C[C@@H]1C(=O)O[C@H]2[C@@H](O)[C@@]34[C@H]5C[C@@H](C(C)(C)C)[C@]36[C@@H](OC(=O)[C@@H]6O)O[C@@]4(C(=O)O5)[C@@]12O [Gingkolide B] | – | inhibited collagen-stimulated platelet aggregation in a concentration-dependent manner | did not occur
